Laboratory results reported in article PMC7617869, “Molecular glues that inhibit deubiquitylase activity and inflammatory signaling” (Nature Structural & Molecular Biology, 2025).
Several values for one entry are separate records, joined by “and”; a condition that tells them apart may be missing. Equal values may be shown once. Read-outs that look alike come from different tables or passages of the source.

What was measured:
BRISC = biological target: T1, BRISC (Homo sapiens, UniProt P46736+Q15018+Q9NXR7); assay: BRISC DUB activity assay (IQF K63-linked diubiquitin); type: biochemical
T1 construct: made in house; host or cells: Spodoptera frugiperda (Sf9) insect cells, MultiBac
Outline: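 Cleavage of 50 nM IQF K63-linked diubiquitin was followed by fluorescence (ex 544 nm, em 575 nm) every minute for 30 min at 30 °C in 50 mM HEPES–NaOH pH 7.0, 100 mM NaCl, 0.1 mg ml^−1 BSA, 1 mM DTT, 0.03% Brij-35. BRISC WT and mutants were at 1 nM final. IC50 values came from variable-slope fits of initial velocity.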

[1] = tested on: IFNAR1 cell surface levels in MCF10A BRCC45 R137A cells; assay: MCF10A BRCC45 R137A IFNAR1 cell surface levels (FACS); type: cell-based, human
Experimental: To study the direct effect of BRISC DUB inhibitors, IFNAR1 surface levels were measured using flow cytometry (FACS) analysis. For this purpose, MCF10A WT and MCF10A BRCC45 KO cells expressing […]
BRCC45 WT or BRCC45 R137A were used. […]
minutes prior to the addition of 50 ng/mL of hIFN-Iα for various time points (45 minutes and 90 minutes).
After IFN treatment, cells were dissociated from plate using cell dissociation Buffer (ThermoFisher Scientific, #13150016) and were stained with LIVE/DEAD™ Fixable Violet Dead Cell Stain Kit, for 405 nm excitation (ThermoFisher Scientific, #L34963) for 30 minutes, as per the kit protocol. The cells were then washed using FACS buffer (DPBS, 1% BSA, 2 mM EDTA, 0.09% sodium azide) and transferred to 96-well round bottom plates. Resuspended cells were divided into three repeats for each sample, each was surface stained for 1 hour at 4 °C with: 1. Human IFN-alpha/beta R1 Antibody (R&D systems, #MAB245), 2. Mouse IgG1 Isotype Control (R&D systems, #MAB002), 3. FACS buffer (control cells).
Following incubation, cells were washed once with FACS buffer and were labelled for 30 minutes at 4 °C with either Biotin-SP-conjugated AffiniPure Donkey Anti-Mouse IgG (H+L) (Jackson Immunoresearch Laboratories) for samples 1 and 2 or with FACS buffer for sample 3. Cells were washed twice with FACS buffer and were labelled for 15 minutes at 4 °C with either R-Phycoerythrin-conjugated Streptavidin (Jackson Immunoresearch Laboratories) for samples 1 and 2 or with FACS buffer for sample 3. Cells were washed 3 times with FACS buffer and were analysed by FACS (MACSQuant, Miltenyi Biotec). For each sample from group 1 the Geo mean fluorescence intensity (MFI) of its isotype sample was reduced. IFNAR1 cell surface percentage was calculated by 100*(MFI

IC50 (BRISC; 32-point dose-response, biphasic fit, read-out: IC50(1), biphasic curve): 7200 nM
IC50 (BRISC; 32-point dose-response, biphasic fit, read-out: IC50(2), biphasic curve): 149 nM
remaining activity at 0.35 µM (BRISC; BRISC WT, FX-171-C 0.35 μM, read-out: Normalised V0): 54.2%
remaining activity at 6.25 µM (BRISC; BRISC WT, FX-171-C 6.25 μM, read-out: Normalised V0): 13%
IC50 (BRISC; FX-171-C IC50, BRISC WT, mutant panel (Extended Data Fig. 7c)): 600 nM
Normalised V0 (BRISC; Fig. 1g, BRISC, FX-171-C 0.0599997 μM): 1.019
Normalised V0 (BRISC; Fig. 1g, BRISC, FX-171-C 0.0799994 μM): 0.9329 and 1.215 and 0.984
Normalised V0 (BRISC; Fig. 1g, BRISC, FX-171-C 0.119998 μM): 0.8991 and 1.297 and 1.1131
Normalised V0 (BRISC; Fig. 1g, BRISC, FX-171-C 0.199996 μM): 0.9109 and 1.1 and 0.9714
Normalised V0 (BRISC; Fig. 1g, BRISC, FX-171-C 0.499975 μM): 0.8337 and 0.8541 and 0.839
Normalised V0 (BRISC; Fig. 1g, BRISC, FX-171-C 0.799936 μM): 0.8201 and 0.7671 and 0.7222
Normalised V0 (BRISC; Fig. 1g, BRISC, FX-171-C 1.25984 μM): 0.7744 and 0.5965 and 0.5179
Normalised V0 (BRISC; Fig. 1g, BRISC, FX-171-C 1.9996 μM): 0.7381 and 0.4197 and 0.4126
Normalised V0 (BRISC; Fig. 1g, BRISC, FX-171-C 3.159 μM): 0.4028 and 0.2971 and 0.3289
Normalised V0 (BRISC; Fig. 1g, BRISC, FX-171-C 5.19739 μM): 0.6152 and 0.3188 and 0.3118
remaining activity at 0.0599997 µM (BRISC; HsBRISC, FX-171-C 0.0599997 μM, read-out: Normalised V0): 102%
remaining activity at 0.199996 µM (BRISC; HsBRISC, FX-171-C 0.199996 μM, read-out: Normalised V0): 91.1%
remaining activity at 0.499975 µM (BRISC; HsBRISC, FX-171-C 0.499975 μM, read-out: Normalised V0): 83.4%
remaining activity at 0.799937 µM (BRISC; HsBRISC, FX-171-C 0.799937 μM, read-out: Normalised V0): 82%
remaining activity at 3.159 µM (BRISC; HsBRISC, FX-171-C 3.159 μM, read-out: Normalised V0): 40.3%
remaining activity at 19.96 µM (BRISC; HsBRISC, FX-171-C 19.96 μM, read-out: Normalised V0): 18.8%
remaining activity at 31.4999 µM (BRISC; HsBRISC, FX-171-C 31.4999 μM, read-out: Normalised V0): 18.9%
remaining activity at 79.7601 µM (BRISC; HsBRISC, FX-171-C 79.7601 μM, read-out: Normalised V0): 22.3%
remaining activity at 125.99 µM (BRISC; HsBRISC, FX-171-C 125.99 μM, read-out: Normalised V0): 16.2%
IC50 (BRISC; IQF K63-linked diubiquitin substrate, read-out: IC50, inhibition of BRISC DUB activity): 1400 nM
Normalised V0 (BRISC; [Inhibitor] 0.02 μM, replicate columns): 0.8164 and 1.359 and 1.027
Normalised V0 (BRISC; [Inhibitor] 0.0399999 μM, replicate columns): 0.8327 and 1.212 and 1.032
Normalised V0 (BRISC; [Inhibitor] 0.0599997 μM, replicate columns): 1.019 and 1.179 and 1.007
Normalised V0 (BRISC; [Inhibitor] 0.0799994 μM, replicate columns): 0.9329 and 1.215 and 0.984
Normalised V0 (BRISC; [Inhibitor] 0.119998 μM, replicate columns): 0.8991 and 1.297 and 1.1131
Normalised V0 (BRISC; [Inhibitor] 0.199996 μM, replicate columns): 0.9109 and 1.1 and 0.9714
Normalised V0 (BRISC; [Inhibitor] 0.499975 μM, replicate columns): 0.8337 and 0.8541 and 0.839
Normalised V0 (BRISC; [Inhibitor] 0.799936 μM, replicate columns): 0.8201 and 0.7671 and 0.7222
Normalised V0 (BRISC; [Inhibitor] 1.25984 μM, replicate columns): 0.7744 and 0.5965 and 0.5179
Normalised V0 (BRISC; [Inhibitor] 1.9996 μM, replicate columns): 0.7381 and 0.4197 and 0.4126
Normalised V0 (BRISC; [Inhibitor] 3.159 μM, replicate columns): 0.4028 and 0.2971 and 0.3289
Normalised V0 (BRISC; [Inhibitor] 5.19739 μM, replicate columns): 0.6152 and 0.3188 and 0.3118
Normalised V0 (BRISC; [Inhibitor] 7.99364 μM, replicate columns): 0.4919 and 0.2336 and 0.2963
Normalised V0 (BRISC; [Inhibitor] 12.7839 μM, replicate columns): 0.5596 and 0.3112 and 0.2492
Normalised V0 (BRISC; [Inhibitor] 19.96 μM, replicate columns): 0.1876 and 0.174 and 0.161
Normalised V0 (BRISC; [Inhibitor] 31.4999 μM, replicate columns): 0.1887 and 0.2421 and 0.2131
Normalised V0 (BRISC; [Inhibitor] 50.147 μM, replicate columns): 0.05691 and 0.1395 and 0.2567
Normalised V0 (BRISC; [Inhibitor] 79.7601 μM, replicate columns): 0.2227 and 0.2164 and 0.1439
Normalised V0 (BRISC; [Inhibitor] 125.99 μM, replicate columns): 0.1622 and 0.2082 and 0.2077
Normalised V0 (BRISC; [Inhibitor] 199.922 μM, replicate columns): 0.03119 and 0.1486 and 0.1232
Normalised velocity (V0) (BRISC; inhibitor 0.000794328 μM): 1
Normalised velocity (V0) (BRISC; inhibitor 0.00125892 μM): 0.9709 and 1.087
Normalised velocity (V0) (BRISC; inhibitor 0.00199526 μM): 0.9893 and 1.074
Normalised velocity (V0) (BRISC; inhibitor 0.00316228 μM): 1.07 and 1.182
Normalised velocity (V0) (BRISC; inhibitor 0.00501187 μM): 1.042 and 1.106
Normalised velocity (V0) (BRISC; inhibitor 0.00794328 μM): 1.04 and 1.13
Normalised velocity (V0) (BRISC; inhibitor 0.0125893 μM): 0.9855 and 1.097
Normalised velocity (V0) (BRISC; inhibitor 0.0199526 μM): 1.04 and 1.062
Normalised velocity (V0) (BRISC; inhibitor 0.0316228 μM): 0.9173 and 1.065
Normalised velocity (V0) (BRISC; inhibitor 0.0501187 μM): 0.915 and 1.002
Normalised velocity (V0) (BRISC; inhibitor 0.0794328 μM): 0.8247 and 0.8903
Normalised velocity (V0) (BRISC; inhibitor 0.125893 μM): 0.6057 and 0.745
Normalised velocity (V0) (BRISC; inhibitor 0.199526 μM): 0.5727 and 0.6444
Normalised velocity (V0) (BRISC; inhibitor 0.316228 μM): 0.4326 and 0.4719
Normalised velocity (V0) (BRISC; inhibitor 0.398107 μM): 0.425 and 0.486
Normalised velocity (V0) (BRISC; inhibitor 0.630957 μM): 0.3369 and 0.3696
Normalised velocity (V0) (BRISC; inhibitor 1 μM): 0.2871 and 0.3028
Normalised velocity (V0) (BRISC; inhibitor 1.58489 μM): 0.2427 and 0.2962
Normalised velocity (V0) (BRISC; inhibitor 2.51189 μM): 0.2711 and 0.2368
Normalised velocity (V0) (BRISC; inhibitor 3.98107 μM): 0.2213 and 0.2236
Normalised velocity (V0) (BRISC; inhibitor 6.30957 μM): 0.121 and 0.1898
Normalised velocity (V0) (BRISC; inhibitor 10 μM): 0.08882 and 0.07343
Normalised velocity (V0) (BRISC; inhibitor 15.8489 μM): 0.08806 and 0.08498
Normalised velocity (V0) (BRISC; inhibitor 25.1189 μM): 0
Normalised velocity (V0) (BRISC; inhibitor 39.8107 μM): 0
Normalised velocity (V0) (BRISC; inhibitor 63.0957 μM): 0
Normalised velocity (V0) (BRISC; inhibitor 100 μM): 0
SMILES: O=C(NC1C2CNCC21)c1nn(C(=O)c2c(Cl)cccc2Cl)cc1NC(=O)c1c(Cl)cccc1Cl (stereo not shown) [FX-171-C]
Normalised V0 (BRISC; [Inhibitor] 0.013 μM, replicate columns): 0.9661 and 1.259 and 1.028 and 1.106 and 0.9509 and 0.8874
potency ranking over BRISC orthologs (BRISC; human vs mouse and zebrafish BRISC): highest potency toward human BRISC over mouse and zebrafish BRISC
IFNAR1 cell surface levels (Fig. 5g) ([1]; BRCC45 KO + BRCC45 R137A, IFN + compound, No IFN about 100): 49.6989 and 47.3367 and 48.4484
IFNAR1 cell surface levels ([1]; BRCC45 R137A cells, IFN 50 ng/ml, 5 μM, 90 min): not reduced
